In patent US8017364B2, “Solvent tolerant microorganisms” (Butamax(TM) Advanced Biofuels LLC, priority 2006, dated 2011):

Experiments:
[1] = tested on: identified tolerant strains; assay: Expected growth on solid medium, inferred from IC50 values and correlation with 1-butanol tolerance; format: cell-based, Pediococcus
[2] = tested on: Lactococcus lactis overexpressing GroESL; conditions: GroESL overexpression; equals 0.4% weight/volume (w/v); cited from earlier work
PN1042 = conditions: liquid medium, 37° C.
Experimental: (§1) The growth data was used to calculate the percent growth inhibition caused by 1-butanol by subtracting the percent growth ([…]; where T0OD600 is the initial optical density at the starting time and T5OD600 is the optical density after 5 h) from 100%.

PN1011 = conditions: liquid medium, 37° C.
Experimental: as §1

[3] = tested on: most microorganisms described in the art; conditions: liquid medium, 37° C.; cited from earlier work
[4] = tested on: Lactobacillus paracasei overexpressing GroESL; conditions: GroESL overexpression; equals 0.4% weight/volume (w/v); cited from earlier work

CCC(C)=O [2-butanone]
concentration in solid medium on which strains are expected to grow [1]: 6.0 % w/v

CCC(C)O (stereo not shown) [2-butanol]
concentration in solid medium on which strains are expected to grow [1]: 4.0 % w/v

CCCCO [1-butanol]
concentration at which strain was able to grow [2]: 0.5 % volume/volume (v/v)
growth in the presence of 1-butanol (PN1042; PN1042, 3% (w/v) 1-butanol): low levels of growth
percent growth inhibition (PN1042; PN1042, 3.5% (w/v) 1-butanol, OD600 over 5 h): 100%
growth in the presence of 1-butanol (PN1011; PN1011, 3% (w/v) 1-butanol): low levels of growth
percent growth inhibition (PN1011; PN1011, 3.5% (w/v) 1-butanol, OD600 over 5 h): 100%
concentration at which growth is totally inhibited [3]: less than 2.0 % w/v
concentration at which strain was able to grow [4]: 0.5 % volume/volume (v/v)

CC(C)CO [isobutanol]
concentration in solid medium on which strains are expected to grow [1]: 3.5 % w/v
